The text below walks through data of US20100068747A1, “Generic Assay for Monitoring Endocytosis” (Evotec Technologies GmbH, priority 2005, published 2010).

The subject of experiment [1] is U2OS/ETAR-GFP cells. The experiment is described as follows: Lectin labeling of live cells, U2OS/ETAR-GFP. The class given is cell-based, human.
Another experiment concerns CHO/PAR-2 cells. The experiment is described as follows: Lectin labeling of live cells, CHO/PAR-2. The format is cell-based. The settings on record: TRITC-lectin, 10 nM at maximum. The method, then: (§1) Lectin labeling of live cells was conducted as follows: Cells were seeded as described above. After 24 hours cells were washed once with PBS and incubated in the incubator for another 2 hours in the respective standard medium without serum supplement to deprive them of serum factor mediated stimuli. This step was termed starvation period. Subsequently, cells were washed gently with PBS and incubated with 37° C. tempered assay medium comprised of Hank's Balanced Salt Solution (HBSS) pH 7.4, containing 20 mM HEPES and 30 mM D-glucose. The plate was left at RT for 30 minutes to slowly level its temperature and, thus, avoid capturing of temperature drop induced membrane dynamics. This period was termed leveling period. Then, assay medium was withdrawn and wells refilled with TRITC-lectin solutions at RT to start cell labeling. Several lectin concentrations in the low nano-molar range were tested. Molar concentrations were calculated from the data provided by Vector Labs. The plate was placed on a rotating shaker at low revolutions for 10 minutes while incubating. The start of the lectin incubation is referred to as assay starting point with t=0 min. After the 10 min incubation period the cells were gently washed with PBS and wells refilled with assay buffer at RT. Instantly thereafter, fluorescence signals were monitored predominately using the epifluorescence microscope.
(§2) The following microscopy and image analysis techniques were employed. When utilizing the epifluorescence microscope magnifications were adjusted according to the purpose of observation, e.g. single cell vs. cell collective. Concerning the filters U-MNU was used for Hoechst, U-MSWB for GFP, and U-N41007 for TRITC detection. Hoechst images were taken at 50 ms exposure time, GFP images at 100 to 200 ms and TRITC images needed 500 to 1000 ms. Overlay images were assembled with AnalySIS and tuned in color intensity to obtain the desired color contrast. Images taken to compare two experimental conditions, e.g. control vs. stimulus, featured identical exposure parameters. If possible, well areas were chosen that reflect similar states of confluence. Utilizing the Opera confocal fluorescence imager, the instrument was calibrated running standard methods for skew cropping (spatial camera alignments) and camera intensity normalization.

Experiment [2] addresses T1, endothelin A receptor (ETAR) (Homo sapiens, UniProt P25101).
T1 construct: expressed in transfected cells; host or cells: CHO-K1 cell line clone #19, prepared in-house
T1 sequence (P25101 21-427): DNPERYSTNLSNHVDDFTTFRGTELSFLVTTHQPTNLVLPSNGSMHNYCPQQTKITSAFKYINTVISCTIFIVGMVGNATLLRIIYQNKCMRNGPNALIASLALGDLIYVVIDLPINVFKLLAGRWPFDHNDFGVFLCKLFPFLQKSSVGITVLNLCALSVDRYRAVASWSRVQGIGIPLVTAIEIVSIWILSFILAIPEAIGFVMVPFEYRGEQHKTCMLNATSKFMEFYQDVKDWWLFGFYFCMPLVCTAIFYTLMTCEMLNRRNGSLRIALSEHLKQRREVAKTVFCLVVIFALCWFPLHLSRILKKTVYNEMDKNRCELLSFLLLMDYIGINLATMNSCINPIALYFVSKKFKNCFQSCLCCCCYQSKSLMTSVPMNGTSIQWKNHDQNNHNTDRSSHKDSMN
The experiment is described as follows: Lectin labeling of live cells with receptor targeted stimulation, CHO/ETAR. The format is cell-based, Chinese hamster. The settings on record: endothelin 1 stimulation. The method, then: With regard to lectin labeling of live cells with receptor target stimulation, lyophilized PAR-2 peptide was resuspended in 20 mM HEPES with 0.1% BSA at 4 mM. […] The live cell labeling protocol was applied as described above. Additionally, endothelin and PAR-2 agonist peptide were added to the assay medium employed after the lectin labeling step at concentrations of 40 nM and 100 μM, respectively. For controls, same amount of resuspension liquid without agonist was supplemented. Instantly, fluorescence signals were monitored.

Another experiment relates to CHO/ETAR cells. The experiment is described as follows: Lectin labeling of fixed cells, CHO/ETAR. The format is cell-based. The note with it: TRITC-lectin 10 nM and 20 nM. The method, then: Lectin labeling of fixed cells was conducted as follows: To detach confluent cells in order to prepare experiments for internalization studies, cells were always treated with EDTA solution instead of trypsin solution. For all seeding, washing, and labeling steps in 96-well plates a working volume of 100 μl per well was assessed. Cells were seeded out into a 96-well plate at different concentrations. U2OS/ETAR-GFP suspensions were adjusted to yield 2*10^4 cells/well, both of the CHO cell lines must be at 2.5*10^4 cells/well. Cells became confluent after 24 hours of incubation. In the following, they were washed with phosphate buffered saline (PBS) and fixed with 3% PFA for 20 minutes at RT. Then, cells were washed again with PBS and incubated in 10 nM and 20 nM solutions of each TRITC-lectin candidate in PBS, respectively. Again, cells were washed with PBS to remove excess lectin, and wells were refilled with PBS for analysis. For specificity controls, lectin solutions were incubated for 30 minutes prior to the application with an excess of the monosaccharide that represents the respective glyco-epitope.
as §2

The subject of experiment [3] is U2OS/ETAR-GFP cells. The experiment is described as follows: Lectin labeling of live cells, U2OS/ETAR-GFP. The format is cell-based, human. The settings on record: TRITC-lectin, 10 nM at maximum. The method, then: as §1, §2

Consider “succinylated Triticum vulgaris (wheat germ) agglutin [sWGA]”, for which the “delay in spot formation” value in the experiment on U2OS/ETAR-GFP cells [1] (pH 6.8, U2OS cells) was 20 min. Further, the “spot formation at increased pH” value with U2OS/ETAR-GFP cells [1] (pH 8.0, U2OS cells) is “accelerated”. In addition, the “Live cell staining of CHO/PAR-2” value in the experiment with CHO/PAR-2 cells is “spot formation”. For the same substance, the “early spot formation, time after stimulation” value in experiment [2] fell in the range of 20 to 30 min. Moreover, the “Staining of CHO/ETAR” value with CHO/ETAR cells is “cell surface”. For the same substance, the “Live cell staining of U2OS/ETAR-GFP” value with U2OS/ETAR-GFP cells [3] is reported as “spot formation”.
